{
  "source": "patent US12649750B2",
  "about": "“Macrocyclic compounds, compositions, and methods of using thereof” (Sionna Therapeutics Inc., priority 2022, dated 2026)",
  "key": {"NBD1": {"target": "T1, NBD1 (Homo sapiens, UniProt P13569)", "T1 construct": "Purified recombinant NBD1 was produced using previously described methods; made in house", "T1 sequence (P13569 423-646 limits assumed)": "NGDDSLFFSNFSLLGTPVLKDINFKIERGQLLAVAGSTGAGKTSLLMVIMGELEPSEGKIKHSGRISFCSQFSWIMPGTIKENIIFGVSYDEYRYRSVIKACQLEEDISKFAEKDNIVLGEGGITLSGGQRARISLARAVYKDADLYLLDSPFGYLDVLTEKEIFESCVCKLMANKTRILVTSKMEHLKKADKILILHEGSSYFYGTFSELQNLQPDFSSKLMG", "test": "Aggregation analysis using differential static light scattering (DSLS), thermal stability of NBD1 (ΔTagg)", "format": "binding", "settings": "ΔTagg versus DMSO control, NBD1 0.2 mg/ml", "method_in_brief": "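Stabilisation is measured as the shift in aggregation onset of recombinant NBD1 (0.2 mg/ml, 2 mM ATP, 5 mM MgCl2, pH7.6) exposed to compound. Images are taken every 0.5° C. while heating at 1° C. per minute, and the inflection-point Tagg is corrected by the DMSO mean.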"}, "CFTR": {"target": "T2, CFTR (Homo sapiens, UniProt P13569, DEL508-508)", "T2 construct": "Primary human bronchial epithelial cells from a ΔF508 homozygous CF donor; host or cells: primary human bronchial epithelial cells (CF-HBE), ΔF508 homozygous donor", "T2 sequence (P13569 with tags, fused parts or gaps DEL508-508)": "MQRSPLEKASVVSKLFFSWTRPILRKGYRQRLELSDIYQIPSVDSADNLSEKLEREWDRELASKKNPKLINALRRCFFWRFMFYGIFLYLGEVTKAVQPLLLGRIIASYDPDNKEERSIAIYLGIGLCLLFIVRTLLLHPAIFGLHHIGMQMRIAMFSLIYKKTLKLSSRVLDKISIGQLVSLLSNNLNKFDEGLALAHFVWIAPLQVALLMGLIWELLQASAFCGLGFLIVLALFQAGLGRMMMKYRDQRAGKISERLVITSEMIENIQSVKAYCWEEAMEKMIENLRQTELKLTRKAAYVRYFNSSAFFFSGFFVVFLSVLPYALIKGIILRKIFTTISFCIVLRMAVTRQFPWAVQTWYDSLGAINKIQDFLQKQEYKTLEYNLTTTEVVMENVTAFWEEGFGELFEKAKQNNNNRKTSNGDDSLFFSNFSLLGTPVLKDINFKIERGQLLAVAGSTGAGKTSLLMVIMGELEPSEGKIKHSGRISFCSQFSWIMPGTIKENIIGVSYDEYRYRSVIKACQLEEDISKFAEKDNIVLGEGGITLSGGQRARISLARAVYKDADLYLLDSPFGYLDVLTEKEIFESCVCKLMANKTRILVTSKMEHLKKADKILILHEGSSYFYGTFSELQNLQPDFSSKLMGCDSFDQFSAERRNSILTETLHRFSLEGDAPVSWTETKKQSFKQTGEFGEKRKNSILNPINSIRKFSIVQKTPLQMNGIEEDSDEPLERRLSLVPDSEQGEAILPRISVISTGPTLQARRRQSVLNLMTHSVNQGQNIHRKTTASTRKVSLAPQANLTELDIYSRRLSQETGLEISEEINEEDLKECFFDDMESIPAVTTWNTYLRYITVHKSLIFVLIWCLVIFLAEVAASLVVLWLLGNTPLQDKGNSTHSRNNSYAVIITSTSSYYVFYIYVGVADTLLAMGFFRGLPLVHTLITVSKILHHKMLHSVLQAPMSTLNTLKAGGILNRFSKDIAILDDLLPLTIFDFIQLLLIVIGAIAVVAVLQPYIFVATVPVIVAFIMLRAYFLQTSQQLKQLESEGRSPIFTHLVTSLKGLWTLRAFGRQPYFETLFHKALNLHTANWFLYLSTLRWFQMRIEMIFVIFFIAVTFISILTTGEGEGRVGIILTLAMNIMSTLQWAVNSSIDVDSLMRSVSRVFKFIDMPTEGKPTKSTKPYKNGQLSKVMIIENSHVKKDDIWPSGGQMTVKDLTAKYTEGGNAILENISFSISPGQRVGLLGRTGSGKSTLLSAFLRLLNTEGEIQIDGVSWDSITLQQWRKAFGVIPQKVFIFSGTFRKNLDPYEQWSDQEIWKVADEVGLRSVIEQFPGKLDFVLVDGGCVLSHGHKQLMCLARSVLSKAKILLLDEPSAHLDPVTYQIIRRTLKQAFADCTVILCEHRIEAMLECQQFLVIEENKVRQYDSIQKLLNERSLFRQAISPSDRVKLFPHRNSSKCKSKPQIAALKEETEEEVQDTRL", "test": "TECC24 AUC fold over DMSO @10 μM, CFTR-mediated transepithelial chloride transport in CF-HBE cells", "format": "cell-based", "settings": "test agent AUC divided by DMSO vehicle AUC, primary CF-HBE cells, ΔF508 homozygous donor, 48 hours incubation", "description": "Example 387. TECC24 AUC Fold Over DMSO @10 μM\nThe effects of a test agent on CFTR-mediated transepithelial chloride transport is measured using TECC24 recording analysis. Test agents are solubilized in DMSO. Solubilized test agents are mixed with incubation medium containing DMEM/F12, Ultroser G (2%; Crescent Chemical, catalog #67042), Hyclone Fetal Clone II (2%; GE Healthcare, catalog #SH30066.02), bovine brain extract (0.25%; Lonza, catalog #CC-4098), insulin (2.5 μg/mL), IL-13 (10 ng/mL), hydrocortisone (20 nM), transferrin (2.5 μg/mL), triiodothyronine (500 nM), ethanolamine (250 nM), epinephrine (1.5 μM), phosphoethanolamine (250 nM), and retinoic acid (10 nM). Primary human bronchial epithelial cells from a ΔF508 homozygous CF donor (CF-HBE cells; from University of North Carolina Cystic Fibrosis Tissue Procurement Center), grown on Transwell HTS 24-well cell culture inserts (Costar, catalog #3378), are exposed to test agents or controls dissolved in incubation medium. The CF-HBE cells are cultured at 36.5° C. for 48 hours before TECC24 recordings are performed in the presence or absence of test agent, a positive control or vehicle (DMSO).\nFollowing incubation, the transwell cell culture inserts containing the test agent or control-treated CF-HBE cells are loaded onto a TECC24 apparatus (TECC v7 or MTECC v2; EP Design) to record the transepithelial voltage (VT) and resistance (TEER) using 4 AgCl electrodes per well configured in current-clamp mode. The apical and basolateral bath solutions both contain (in mM) 140 NaCl, 5 KCl, 2 CaCl2, 1 MgCl2, 10 Hepes, and 10 glucose (adjusted to pH 7.4 with NaOH). To inhibit basal Na+ absorption, the ENaC inhibitor benzamil (10 μM) is added to the bath. Then, the adenylate cyclase activator, forskolin (10 μM), is added to the bath to activate CFTR. The forskolin-stimulated Cl— transport is halted by addition of CFTR inhibitor-172 (20 μM) to the bath at the end of the experiment to confirm specificity. VT and TEER recordings are digitally acquired at routine intervals using TECC or MTECC software (EP Design). VT and TEER are transformed into equivalent transepithelial Cl— current (IEQ), and the Area Under the Curve (AUC) of the IEQ time course between forskolin and CFTR inhibitor-172 addition is generated using Excel (Microsoft). Efficacy is expressed as the ratio of the test agent AUC divided by vehicle AUC. EC50s based on AUC are generated using the non-linear regression log(agonist) vs. response function in Prism software (Graphpad) with HillSlope fixed=1.\nIf a test agent increases the AUC of the forskolin-stimulated IEQ relative to vehicle in CF-HBE cells, and this increase is inhibited by CFTR inhibitor-172, then the test agent is considered a CFTR corrector. TECC assay efficacy is expressed as the ratio of the test agent AUC divided by DMSO vehicle AUC. As set forth in Table 2 below, a TECC value less than 12 is marked “A”; a value between 12-20 is marked “B”; a value between 20 and 80 is marked “C”. […]"}},
  "data": [
    {"smiles": "CC(CC(=O)O)c1cccc([C@@]2(C)CCCC(C)(C)CS(=O)(=O)CCc3c(c(F)cc4[nH]ccc34)[S+]([O-])c3ccc(F)c(c3)-c3nc2nn3C)c1", "note": "(mixture of isomers) [Compound 217B, 3-[3-[(6R)-22,28-difluoro-3,6,10,10-tetramethyl-12,12,24-trioxo-12λ6,24λ4-dithia-3,4,19,30-tetrazapentacyclo[23.3.1.12,5.015,23.016,20]triaconta-1(29),2(30),4,15,17,20,22,25,27-nonaen-6-yl]phenyl]butanoic Acid]", "values": [
      {"measurement": "DSLS 3D (100 μM ΔT)", "setting": "NBD1", "result": "C (a value greater than 10 °C and less than or equal to 25 °C is marked “C”)"},
      {"measurement": "TECC (AUC, 10 μM)", "setting": "CFTR", "result": "C (a value between 20 and 80 is marked “C”)"}
    ]},
    {"smiles": "CC(O)Cn1nc2nc1-c1cc(ccc1F)Oc1c(F)cc3[nH]ccc3c1CCS(=O)(=O)CC(C)(C)CCC[C@]2(C)c1cccc(C[C@@H](C)C(=O)O)c1", "note": "(mixture of isomers) [Compound 219, (2R)-3-[3-[(6R)-22,28-Difluoro-3-(2-hydroxypropyl)-6,10,10-trimethyl-12,12-dioxo-24-oxa-12λ6-thia-3,4,19,30-tetrazapentacyclo[23.3.1.12,5.015,23.016,20]triaconta-1(29),2(30),4,15,17,20,22,25,27-nonaen-6-yl]phenyl]-2-methyl-propanoic acid]", "values": [
      {"measurement": "DSLS 3D (100 μM ΔT)", "setting": "NBD1", "result": "C (a value greater than 10 °C and less than or equal to 25 °C is marked “C”)"},
      {"measurement": "TECC (AUC, 10 μM)", "setting": "CFTR", "result": "C (a value between 20 and 80 is marked “C”)"}
    ]},
    {"smiles": "C[C@H](Cc1cccc(C2(C)CCCC(C)(C)CS(=O)(=O)CCc3c(c(F)cc4[nH]ccc34)Oc3ccc(F)c(c3)-c3ccn2n3)c1)C(=O)O", "note": "(mixture of isomers) [Compound 230, (2R)-3-[3-(22,28-difluoro-6,10,10-trimethyl-12,12-dioxo-24-oxa-12λ6-thia-5,19,30-triazapentacyclo[23.3.1.12,5.015,23.016,20]triaconta-1(29),2(30),3,15,17,20,22,25,27-nonaen-6-yl)phenyl]-2-methyl-propanoic Acid]", "values": [
      {"measurement": "DSLS 3D (100 μM ΔT)", "setting": "NBD1", "result": "C (a value greater than 10 °C and less than or equal to 25 °C is marked “C”)"},
      {"measurement": "TECC (AUC, 10 μM)", "setting": "CFTR", "result": "C (a value between 20 and 80 is marked “C”)"}
    ]},
    {"smiles": "C[C@@H](Cc1cccc([C@@]2(C)CCCC(C)(C)CS(=O)(=O)CCc3c(c(F)cc4[nH]ccc34)C(=O)c3ccnc(c3)-c3nc2nn3C)c1)C(=O)O", "note": "(mixture of isomers) [Compound 254, (2S)-2-Methyl-3-[3-[rac-(6R)-22-fluoro-3,6,10,10-tetramethyl-12,12,24-trioxo-12λ6-thia-3,4,19,28,30-pentazapentacyclo[23.3.1.12,5.015,23.016,20]triaconta-1(29),2(30),4,15,17,20,22,25,27-nonaen-6-yl]phenyl]propanoic Acid]", "values": [
      {"measurement": "DSLS 3D (100 μM ΔT)", "setting": "NBD1", "result": "C (a value greater than 10 °C and less than or equal to 25 °C is marked “C”)"},
      {"measurement": "TECC (AUC, 10 μM)", "setting": "CFTR", "result": "B (a value between 12-20 is marked “B”)"}
    ]},
    {"smiles": "CC1(C)CCCC(c2cccc(CCC(=O)O)c2)n2ncc(C#N)c2-c2cc(ccc2F)Oc2c(F)cc3[nH]ccc3c2CCS(=O)(=O)C1", "note": "(racemic) [Compound 22A, 3-[3-(3-cyano-23,29-difluoro-11,11-dimethyl-13,13-dioxo-25-oxa-13lambda6-thia-5,6,20-triazapentacyclo[24.3.1.02,6.016,24.017,21]triaconta-1(30),2,4,16,18,21,23,26,28-nonaen-7-yl)phenyl]propanoic acid]", "values": [
      {"measurement": "DSLS 3D (100 μM ΔT)", "setting": "NBD1", "result": "A (an ΔTagg value less than or equal to 5 °C is marked “A”)"},
      {"measurement": "TECC (AUC, 10 μM)", "setting": "CFTR", "result": "A (a TECC value less than 12 is marked “A”)"}
    ]},
    {"smiles": "Cn1nc2nc1-c1cc(ccc1F)Oc1c(F)cc3[nH]ccc3c1CCS(=O)(=O)CC(C)(C)CCCC2(C)c1cccc(CCC(=O)O)c1", "note": "(racemic) [Compound 56, 3-[3-(22,28-Difluoro-3,6,10,10-tetramethyl-12,12-dioxo-24-oxa-12lambda6-thia-3,4,19,30-tetrazapentacyclo[23.3.1.12,5.015,23.016,20]triaconta-1(29),2(30),4,15,17,20,22,25,27-nonaen-6-yl)phenyl]propanoic acid]", "values": [
      {"measurement": "DSLS 3D (100 μM ΔT)", "setting": "NBD1", "result": "C (a value greater than 10 °C and less than or equal to 25 °C is marked “C”)"},
      {"measurement": "TECC (AUC, 10 μM)", "setting": "CFTR", "result": "A (a TECC value less than 12 is marked “A”)"}
    ]},
    {"smiles": "Cc1cn2nc1-c1cc(ccc1F)Oc1c(F)cc3[nH]ccc3c1CCS(=O)(=O)CC(C)(C)CCCC2c1cccc(CCC(=O)O)c1", "note": "(racemic) [Compound 66, 3-[3-(22,28-Difluoro-3,10,10-trimethyl-12,12-dioxo-24-oxa-12λ6-thia-5,19,30-triazapentacyclo[23.3.1.12,5.015,23.016,20]triaconta-1(29),2(30),3,15,17,20,22,25,27-nonaen-6-yl)phenyl]propanoic Acid]", "values": [
      {"measurement": "DSLS 3D (100 μM ΔT)", "setting": "NBD1", "result": "C (a value greater than 10 °C and less than or equal to 25 °C is marked “C”)"},
      {"measurement": "TECC (AUC, 10 μM)", "setting": "CFTR", "result": "B (a value between 12-20 is marked “B”)"}
    ]},
    {"smiles": "Cn1nc2nc1-c1cc(ccc1F)Oc1c(F)cc3[nH]ccc3c1CCS(=O)(=O)/C=C(\\F)C(C)(C)CCC2(C)c1cccc(CCC(=O)O)c1", "note": "(racemic) [Compound 94, 3-[3-[(10Z)-10,22,28-Trifluoro-3,6,9,9-tetramethyl-12,12-dioxo-24-oxa-12lambda6-thia-3,4,19,30-tetrazapentacyclo-[23.3.1.12,5.015,23.016,20]triaconta-1(29),2(30),4,10,15,17,20,22,25,27-decaen-6-yl]phenyl]propanoic Acid]", "values": [
      {"measurement": "DSLS 3D (100 μM ΔT)", "setting": "NBD1", "result": "A (an ΔTagg value less than or equal to 5 °C is marked “A”)"},
      {"measurement": "TECC (AUC, 10 μM)", "setting": "CFTR", "result": "A (a TECC value less than 12 is marked “A”)"}
    ]},
    {"smiles": "Cn1nc2nc1-c1cc(ccc1F)Cc1c(F)cc3[nH]ccc3c1CCS(=O)(=O)CC(C)(C)CCCC2(C)c1cccc(/C=C/C(=O)O)c1", "note": "(racemic) [Compound 167, (E)-3-[3-(22,28-Difluoro-3,6,10,10-tetramethyl-12,12-dioxo-12λ6-thia-3,4,19,30-tetrazapentacyclo[23.3.1.12,5.015,23.016,20]triaconta-1(29),2(30),4,15,17,20,22,25,27-nonaen-6-yl)phenyl]prop-2-enoic Acid]", "values": [
      {"measurement": "DSLS 3D (100 μM ΔT)", "setting": "NBD1", "result": "C (a value greater than 10 °C and less than or equal to 25 °C is marked “C”)"},
      {"measurement": "TECC (AUC, 10 μM)", "setting": "CFTR", "result": "A (a TECC value less than 12 is marked “A”)"}
    ]},
    {"smiles": "Cn1nc2nc1-c1cc(ccc1F)Oc1c(F)cc3[nH]ccc3c1CCS(=O)(=O)CC(C)(C)CCCC2(C)c1cccc(/C=C2\\NC(=O)NC2=O)c1", "note": "(racemic) [Compound 174, (5Z)-5-[[3-(22,28-Difluoro-3,6,10,10-tetramethyl-12,12-dioxo-24-oxa-12λ6-thia-3,4,19,30-tetrazapentacyclo[23.3.1.12,5.015,23.016,20]-triaconta-1(29),2(30),4,15,17,20,22,25,27-nonaen-6-yl)phenyl]methylene]imidazolidine-2,4-dione]", "values": [
      {"measurement": "DSLS 3D (100 μM ΔT)", "setting": "NBD1", "result": "C (a value greater than 10 °C and less than or equal to 25 °C is marked “C”)"},
      {"measurement": "TECC (AUC, 10 μM)", "setting": "CFTR", "result": "A (a TECC value less than 12 is marked “A”)"}
    ]},
    {"smiles": "Cn1nc2nc1-c1cc(ccn1)Oc1c(F)cc3[nH]ccc3c1CCS(=O)(=O)CC(C)(C)CCC[C@]2(C)c1cccc(CCC(=O)O)c1", "note": "(racemic) [Compound 228, 3-[3-[rac-(6R)-22-fluoro-3,6,10,10-tetramethyl-12,12-dioxo-24-oxa-12λ6-thia-3,4,19,28,30-pentazapentacyclo[23.3.1.12,5.015,23.016,20]triaconta-1(29),2(30),4,15,17,20,22,25,27-nonaen-6-yl]phenyl]propanoic acid]", "values": [
      {"measurement": "DSLS 3D (100 μM ΔT)", "setting": "NBD1", "result": "C (a value greater than 10 °C and less than or equal to 25 °C is marked “C”)"},
      {"measurement": "TECC (AUC, 10 μM)", "setting": "CFTR", "result": "C (a value between 20 and 80 is marked “C”)"}
    ]}
  ]
}
